Results on nine molecules are retold here after paper PMC8151276, “An Integrated Approach toward NanoBRET Tracers for Analysis of GPCR Ligand Engagement” (Molecules, 2021).

Common to all, as to type: binding
The target in one experiment is T1, PTGFR (Homo sapiens, UniProt P43088).
T1 construct: purchased Promega (in-house HiBiT-GPCR construct library, NanoBRET)
Briefly: NanoBRET screen HiBiT-PTGFR in HEK293. The protocol:
(§1) Each tracer candidate was screened across the entire library of HiBiT-GPCR constructs using NanoBRET as the detection modality. As depicted in Figure 4A, the specificity of interactions was evaluated through decrease in BRET due to competitive displacement of a bound tracer by excess parental compound. Each tracer was analyzed for binding to each HiBiT-GPCR fusion in the absence and in the presence of competing parental compound. Briefly, HEK293 cells were transfected with HiBiT-GPCR constructs diluted into promoterless DNA to reduce expression and maximize translocation to the cell surface. Each tracer candidate was then screened at concentrations of 1 μM and 0.1 μM across cells expressing these fusions. Cells were treated for 1.5 h with tracer either alone or in the presence of 20 μM competing parental compound (i.e., control). BRET was measured upon addition of purified LgBiT and subsequent complementation with HiBiT genetically fused to a GPCR. The specificity of interactions was assessed through a decrease in BRET signal due to competitive displacement of the bound tracer. To further gauge the robustness of these interactions, the fold response over the control (i.e., BRETtracer/BRETcontrol) was calculated. We chose a 1.5-fold response, which translates to ≥7-fold signal over noise as the minimal threshold required to score an interaction as positive. […]. Below we highlight the screening results obtained for our exemplary fluorescent tracers based on Clozapine, Amitriptyline and AZD1283.
(§2) HiBiT-GPCR DNA constructs were diluted in 10 mM Tris pH 8 to a final concentration of 0.01 μg/μL, arrayed in 96-well plates and stored at −20 °C. For transfection, HEK293 cells were suspended in Opti-MEM (without phenol red) supplemented with 2% fetal bovine serum (Seradigm) and 100 units/mL penicillin–streptomycin (Gibco) at a final concentration of 220,000 cells/mL and dispensed into white 96-well plates at 90 μL/well. Subsequent transfections and screens were carried using an Agilent Bravo Automated Liquid Handling Platform. First, the 96-well HiBiT DNA arrays were diluted 25-fold in Opti-MEM (without serum or phenol red) to a final concentration of 0.0004 μg/μL and 20 μL of the diluted DNAs were transferred into new 96-well plates. Next, promoterless carrier DNA (1 μg/μL) was diluted 25-fold (0.04 μg/μL) and then dispensed into the diluted arrays at 20 μL/well. Following brief mixing, Viafect transfection reagent (Promega) diluted 16-fold into Opti-MEM was dispensed into the plates at 40 μL/well. After mixing by pipetting, plates were incubated for 10 min on the pipetting station deck. The DNA-transfection reagent complexes were then added to plates containing cells. To facilitate the screen, 10 μL of DNA-transfection reagent complexes were added in duplicates to the top 4 and bottom 4 rows, resulting in two identical 48-well arrays per plate. Plates with transfected cells were incubated for 18–20 h at 37 °C/5% CO2. A screen of each tracer across the entire library using two different concentrations requires duplicate plates of transfected cells. Depending on the number of tracers being screened, transfections can be scaled up using the same ratios. The next day, for each tracer, four 20× screening solutions in tracer dilution buffer (Promega) were prepared: two duplicates at final concentration of 20 μM and two duplicates at a final concentration of 2 μM. A competing unmodified compound was added to one of each duplicate at a final concentration of 400 μM. The four resulting solutions were diluted 4-fold in Opti-MEM without serum or phenol red to generate 5× solutions (5 µM and 0.5 µM tracer +/− 100 μM competing compound). To screen the library, a BioTek MultiFlo FX liquid dispenser was used to dispense 22.5 µL of tracer solution to the top 4 rows and 22.5 µL tracer + competing compound solution to the 4 bottom rows. Plates were briefly mixed on an orbital shaker and incubated for 1.5 h at room temperature. […]
(In general: BRET reads energy transfer from a luciferase to a nearby fluorophore.)

For a further experiment, the target named is T2, AVPR1B (Homo sapiens, UniProt P47901).
T2 construct: purchased Promega (in-house HiBiT-GPCR construct library, NanoBRET)
T2 sequence (P47901 1-424): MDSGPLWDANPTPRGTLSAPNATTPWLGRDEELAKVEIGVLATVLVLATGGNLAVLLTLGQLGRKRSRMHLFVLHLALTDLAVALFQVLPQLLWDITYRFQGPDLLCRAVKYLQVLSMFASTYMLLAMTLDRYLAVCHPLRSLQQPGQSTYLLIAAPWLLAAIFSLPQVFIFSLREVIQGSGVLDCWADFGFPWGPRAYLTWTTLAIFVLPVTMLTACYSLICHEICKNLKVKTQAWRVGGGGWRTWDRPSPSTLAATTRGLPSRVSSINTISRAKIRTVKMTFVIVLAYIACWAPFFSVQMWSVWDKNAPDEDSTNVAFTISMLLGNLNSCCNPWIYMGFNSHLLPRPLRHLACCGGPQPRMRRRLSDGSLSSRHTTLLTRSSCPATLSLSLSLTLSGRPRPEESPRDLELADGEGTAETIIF
As to the kind of experiment: NanoBRET screen HiBiT-AVPR1B in HEK293. As to the method: as §1, §2

In a further experiment the target is T3, GHSR (Homo sapiens, UniProt Q92847).
T3 construct: purchased Promega (in-house HiBiT-GPCR construct library, NanoBRET)
T3 sequence (Q92847 whole entry): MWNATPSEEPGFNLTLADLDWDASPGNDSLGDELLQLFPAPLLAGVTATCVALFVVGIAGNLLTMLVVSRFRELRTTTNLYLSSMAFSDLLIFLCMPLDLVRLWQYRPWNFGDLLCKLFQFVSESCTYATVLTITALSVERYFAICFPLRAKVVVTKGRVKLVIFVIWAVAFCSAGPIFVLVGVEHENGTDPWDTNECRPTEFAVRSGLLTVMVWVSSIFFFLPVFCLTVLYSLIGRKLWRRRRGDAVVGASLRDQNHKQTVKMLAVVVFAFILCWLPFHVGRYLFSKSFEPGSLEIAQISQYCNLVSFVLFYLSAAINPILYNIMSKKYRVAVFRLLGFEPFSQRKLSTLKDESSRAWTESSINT
Briefly: NanoBRET screen HiBiT-GHSR in HEK293. As to the method: as §1, §2

The target of a further experiment is T4, LTB4R (Homo sapiens, UniProt Q15722).
T4 construct: purchased Promega (in-house HiBiT-GPCR construct library, NanoBRET)
T4 sequence (Q15722 whole entry): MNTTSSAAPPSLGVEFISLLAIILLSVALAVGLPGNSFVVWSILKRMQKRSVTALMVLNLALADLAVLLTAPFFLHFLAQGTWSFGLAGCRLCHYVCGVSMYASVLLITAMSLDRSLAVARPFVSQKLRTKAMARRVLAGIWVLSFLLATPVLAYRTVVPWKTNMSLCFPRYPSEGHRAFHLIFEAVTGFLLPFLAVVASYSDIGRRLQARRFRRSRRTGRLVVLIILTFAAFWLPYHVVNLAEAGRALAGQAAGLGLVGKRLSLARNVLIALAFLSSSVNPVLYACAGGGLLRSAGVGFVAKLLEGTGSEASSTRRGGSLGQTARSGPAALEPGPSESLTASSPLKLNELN
As to the kind of experiment: NanoBRET screen HiBiT-LTB4R in HEK293. The protocol:
as §1, §2

A further experiment deals with T5, TACR2 (Homo sapiens, UniProt P21452).
T5 construct: purchased Promega (in-house HiBiT-GPCR construct library, NanoBRET)
T5 sequence (P21452 1-398): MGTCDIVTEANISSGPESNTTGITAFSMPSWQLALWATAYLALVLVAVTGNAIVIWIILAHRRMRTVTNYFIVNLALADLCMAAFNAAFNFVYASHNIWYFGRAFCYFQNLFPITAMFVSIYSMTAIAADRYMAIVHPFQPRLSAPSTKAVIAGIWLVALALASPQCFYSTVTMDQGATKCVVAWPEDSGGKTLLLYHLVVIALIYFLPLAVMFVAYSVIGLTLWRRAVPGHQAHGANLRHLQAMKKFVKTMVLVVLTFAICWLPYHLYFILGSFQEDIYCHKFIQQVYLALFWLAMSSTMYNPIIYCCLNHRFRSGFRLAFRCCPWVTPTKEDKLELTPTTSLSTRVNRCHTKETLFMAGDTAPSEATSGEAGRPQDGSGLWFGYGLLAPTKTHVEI
As to the kind of experiment: NanoBRET screen HiBiT-TACR2 in HEK293. As to the method: as §1, §2

T1 sequence (P43088 whole entry): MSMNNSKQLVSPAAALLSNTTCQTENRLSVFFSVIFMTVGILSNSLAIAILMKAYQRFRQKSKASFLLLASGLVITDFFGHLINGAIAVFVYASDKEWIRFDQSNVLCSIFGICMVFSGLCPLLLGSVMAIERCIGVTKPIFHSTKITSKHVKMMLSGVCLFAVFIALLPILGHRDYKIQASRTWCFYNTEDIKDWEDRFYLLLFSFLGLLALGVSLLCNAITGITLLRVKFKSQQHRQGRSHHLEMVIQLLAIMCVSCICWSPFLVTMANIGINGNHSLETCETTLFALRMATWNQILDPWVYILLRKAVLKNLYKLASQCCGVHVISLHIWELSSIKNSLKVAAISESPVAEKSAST

On to `COc1ccc2c(n1)c(CCNC(C)=O)cn2CCNC(=O)CCc1ccc2n1[B-](F)(F)[N+]1=C(c3ccc[nH]3)C=CC1=C2` [Azamelatonin-1-NB590], for which the “NanoBRET Fold Response” value on PTGFR (0.1μM tracer) is 1.13; on PTGFR (1μM tracer) it was 0.90; at AVPR1B (0.1μM tracer), 0.90; at AVPR1B (1μM tracer), 1.00; at GHSR (0.1μM tracer), 0.93; on GHSR (1μM tracer), 1.03. Besides, the “NanoBRET Fold Response” value at LTB4R (0.1μM tracer) is recorded as 0.97; on LTB4R (1μM tracer), 0.97; at TACR2 (0.1μM tracer), 0.81; on TACR2 (1μM tracer), 0.91.
Take `CC(C)N(CC[C@H](c1ccccc1)c1cc(CCNC(=O)c2ccc(CNC(=O)CCc3ccc4n3[B-](F)(F)[N+]3=C(c5ccc[nH]5)C=CC3=C4)cc2)ccc1O)C(C)C` [Tolterodine-BZ-NB590]: the “NanoBRET Fold Response” value on PTGFR (PTGFR, tracer 0.1μM) turned out to be 0.99; on PTGFR (PTGFR, tracer 1μM), 1.01; on AVPR1B (AVPR1B, tracer 0.1μM), 0.85; at AVPR1B (AVPR1B, tracer 1μM), 0.94; at GHSR (GHSR, tracer 0.1μM), 1.00; on GHSR (GHSR, tracer 1μM), 1.06. Moreover, the “NanoBRET Fold Response” value on LTB4R (LTB4R, tracer 0.1μM) was found to be 0.95; on LTB4R (LTB4R, tracer 1μM), 1.03; on TACR2 (TACR2, tracer 0.1μM), 1.38; at TACR2 (TACR2, tracer 1μM) it was 1.40.
As for `O=C(CCc1ccc2n1[B-](F)(F)[N+]1=C(c3ccc[nH]3)C=CC1=C2)NCCOCCOCCNC(=O)OCCOCCN1CCN(C2=Nc3ccccc3Sc3ccccc32)CC1` [Quetiapine-a-2-NB590], the “NanoBRET Fold Response” value was 1.00 on PTGFR (PTGFR, tracer 0.1μM); 1.06 on PTGFR (PTGFR, tracer 1μM); 0.86 on AVPR1B (AVPR1B, tracer 0.1μM); 1.01 at AVPR1B (AVPR1B, tracer 1μM); 0.97 on GHSR (GHSR, tracer 0.1μM); 0.77 on GHSR (GHSR, tracer 1μM). Also, the “NanoBRET Fold Response” value on LTB4R (LTB4R, tracer 0.1μM) was 1.27; on LTB4R (LTB4R, tracer 1μM), 1.40; on TACR2 (TACR2, tracer 0.1μM) it was 1.22; at TACR2 (TACR2, tracer 1μM), 0.72.
Turning to `Cc1cc2c(s1)Nc1ccccc1N=C2N1CCN(CCCNC(=O)CCOCCOCCOCCOCCNC(=O)CCc2ccc3n2[B-](F)(F)[N+]2=C(c4ccc[nH]4)C=CC2=C3)CC1` [Olanzapine-a-2-NB590], the “NanoBRET Fold Response” value on PTGFR (PTGFR, tracer 0.1μM) is given as 1.03; at PTGFR (PTGFR, tracer 1μM) it was 1.07; at AVPR1B (AVPR1B, tracer 0.1μM) it was 1.03; on AVPR1B (AVPR1B, tracer 1μM), 1.17; on GHSR (GHSR, tracer 0.1μM) it was 0.96; on GHSR (GHSR, tracer 1μM), 0.98. Besides, the “NanoBRET Fold Response” value on LTB4R (LTB4R, tracer 0.1μM) amounted to 1.02; on LTB4R (LTB4R, tracer 1μM), 1.03; on TACR2 (TACR2, tracer 0.1μM) it was 1.01; at TACR2 (TACR2, tracer 1μM), 0.88.
For the molecule `O=C(CCc1ccc2n1[B-](F)(F)[N+]1=C(c3ccc[nH]3)C=CC1=C2)NCc1ccc(C(=O)NCCOCCOCCNCC(O)COc2cccc3ccccc23)cc1` (centres unmarked) [Propranolol-3-NB590], the “NanoBRET Fold Response” value stood at 0.97 at PTGFR (PTGFR, 0.1μM); 1.00 at PTGFR (PTGFR, 1μM); 0.90 at AVPR1B (AVPR1B, 0.1μM); 1.04 at AVPR1B (AVPR1B, 1μM); 0.98 at GHSR (GHSR, 0.1μM); 0.97 on GHSR (GHSR, 1μM). Besides, the “NanoBRET Fold Response” value at LTB4R (LTB4R, 0.1μM) was found to be 0.97; on LTB4R (LTB4R, 1μM), 1.02; on TACR2 (TACR2, 0.1μM), 1.01; at TACR2 (TACR2, 1μM), 1.01.
For the molecule `CN1CCN(C2=Nc3cc(Cl)ccc3N(CC(=O)NCCOCCOCCOCCOCCNC(=O)CCc3ccc4n3[B-](F)(F)[N+]3=C(c5ccc[nH]5)C=CC3=C4)c3ccccc32)CC1` [Clozapine-c-2-NB590], the “NanoBRET Fold Response” value is 1.00 on PTGFR (PTGFR, 0.1μM tracer); 1.10 on PTGFR (PTGFR, 1μM tracer); 0.95 on AVPR1B (AVPR1B, 0.1μM tracer); 0.84 on AVPR1B (AVPR1B, 1μM tracer); 1.00 on GHSR (GHSR, 0.1μM tracer); 1.04 on GHSR (GHSR, 1μM tracer). The “NanoBRET Fold Response” value on LTB4R (LTB4R, 0.1μM tracer) came to 1.05; on LTB4R (LTB4R, 1μM tracer), 0.95; on TACR2 (TACR2, 0.1μM tracer) it was 0.93; at TACR2 (TACR2, 1μM tracer), 0.88.
For the molecule `COc1ccccc1N1CCN(CCCCN2C(=O)c3ccc(CNC(=O)CCOCCOCCOCCOCCNC(=O)CCc4ccc5n4[B-](F)(F)[N+]4=C(c6ccc[nH]6)C=CC4=C5)cc3C2=O)CC1` [NAN-190-2-NB590], the “NanoBRET Fold Response” value came to 1.00 on PTGFR (PTGFR, tracer 0.1μM); 1.00 on PTGFR (PTGFR, tracer 1μM); 1.01 at GHSR (GHSR, tracer 0.1μM); 1.02 at GHSR (GHSR, tracer 1μM); 0.96 on LTB4R (LTB4R, tracer 1μM); 0.88 on TACR2 (TACR2, tracer 0.1μM). For the same molecule, on TACR2 (TACR2, tracer 1μM), the “NanoBRET Fold Response” value worked out at 1.04.
Turning to `CN(CCC=C1c2ccccc2CCc2ccccc21)C(=O)CCOCCOCCOCCOCCNC(=O)CCc1ccc2n1[B-](F)(F)[N+]1=C(c3ccc[nH]3)C=CC1=C2` [Amitriptyline-e-2-NB590], the “NanoBRET Fold Response” value at AVPR1B (tracer at 1μM) was 1.01; at LTB4R (tracer at 1μM) it was 1.03.
Take `CN(C)CCC=C1c2ccccc2CCc2ccc(C(=O)NCCNC(=O)CCOCCOCCOCCOCCNC(=O)CCc3ccc4n3[B-](F)(F)[N+]3=C(c5ccc[nH]5)C=CC3=C4)cc21` [Amitriptyline-a-2-NB590]: the “NanoBRET Fold Response” value on AVPR1B (tracer at 0.1μM) worked out at 0.94; on AVPR1B (tracer at 1μM), 1.03; on GHSR (tracer at 0.1μM), 0.97; on GHSR (tracer at 1μM) it was 1.04; on LTB4R (tracer at 0.1μM), 1.02; on LTB4R (tracer at 1μM), 1.00. Besides, the entries for the “NanoBRET Fold Response” value on TACR2 (tracer at 0.1μM) and on TACR2 (tracer at 1μM) were 1.10 and 1.13, respectively.
